#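 Step 1: Grow cells in 96-well plates. Step 2: Expose to compound for 48 hours at 5 concentrations. Step 3: Interpolate endpoints linearly; if unreached, use highest concentration. Abbreviation: GI50, concentration required for 50% inhibition of growth. TGI denotes the concentration required for complete inhibition of growth.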
# Key:
# Assay in all cases: NCI-60 cell line screen, 48 h
# SF-539 CNS = tested on: SF-539 CNS
# UACC-257 melanoma = tested on: UACC-257 melanoma
# OVCAR-4 ovarian = tested on: OVCAR-4 ovarian
# MALME-3M melanoma = tested on: MALME-3M melanoma
# HCT-15 colon = tested on: HCT-15 colon
# T-47D breast = tested on: T-47D breast
# BT-549 breast = tested on: BT-549 breast
# RPMI-8226 leukemia = tested on: RPMI-8226 leukemia
# 786-0 renal = tested on: 786-0 renal
# SK-MEL-5 melanoma = tested on: SK-MEL-5 melanoma
# PC-3 prostate = tested on: PC-3 prostate
# HOP-92 NSCLC = tested on: HOP-92 NSCLC
# HCT-116 colon = tested on: HCT-116 colon
# DU-145 prostate = tested on: DU-145 prostate
# NCI-H226 lung = tested on: NCI-H226 lung
# UACC-62 melanoma = tested on: UACC-62 melanoma
# SK-MEL-2 melanoma = tested on: SK-MEL-2 melanoma
# HS 578T breast = tested on: HS 578T breast
# A549 NSCLC = tested on: A549 NSCLC
# COLO 205 colon = tested on: COLO 205 colon
# EKVX NSCLC = tested on: EKVX NSCLC
# OVCAR-8 ovarian = tested on: OVCAR-8 ovarian
# IGROV1 ovarian = tested on: IGROV1 ovarian
# NCI-H23 lung = tested on: NCI-H23 lung
# U251 CNS = tested on: U251 CNS
# KM12 colon = tested on: KM12 colon
# OVCAR-3 ovarian = tested on: OVCAR-3 ovarian
# RXF 393 renal = tested on: RXF 393 renal
# HCC-2998 colon = tested on: HCC-2998 colon
# A498 renal = tested on: A498 renal
# SR leukemia = tested on: SR leukemia
# CAKI-1 renal = tested on: CAKI-1 renal
# SF-295 CNS = tested on: SF-295 CNS
# LOX IMVI melanoma = tested on: LOX IMVI melanoma
# NCI-H460 lung = tested on: NCI-H460 lung
# SNB-75 CNS = tested on: SNB-75 CNS
# SN12C renal = tested on: SN12C renal
# MDA-MB-435 = tested on: MDA-MB-435
# UO-31 renal = tested on: UO-31 renal
# SF-268 CNS = tested on: SF-268 CNS
# MCF7 breast = tested on: MCF7 breast
# CCRF-CEM leukemia = tested on: CCRF-CEM leukemia
# MOLT-4 leukemia = tested on: MOLT-4 leukemia
# HT29 colon = tested on: HT29 colon
# K-562 leukemia = tested on: K-562 leukemia
# ACHN renal = tested on: ACHN renal
# NCI-H522 lung = tested on: NCI-H522 lung
# NCI/ADR-RES ovarian = tested on: NCI/ADR-RES ovarian
# SNB-19 CNS = tested on: SNB-19 CNS
# SK-MEL-28 melanoma = tested on: SK-MEL-28 melanoma
# HOP-62 NSCLC = tested on: HOP-62 NSCLC
# SW-620 colon = tested on: SW-620 colon
# M14 melanoma = tested on: M14 melanoma
# HL-60(TB) leukemia = tested on: HL-60(TB) leukemia
# TK-10 renal = tested on: TK-10 renal
# SK-OV-3 ovarian = tested on: SK-OV-3 ovarian
# MDA-MB-231 breast = tested on: MDA-MB-231 breast
# OVCAR-5 ovarian = tested on: OVCAR-5 ovarian
smiles,measurement,setting,value
C#C[C@]1(O)CC[C@H]2[C@@H]3CC=C4c5sc(-c6ccc(C)cc6)nc5CC[C@]4(C)[C@H]3CC[C@@]21C,GI50,SF-539 CNS,2.31 µM
same,TGI,SF-539 CNS,> 100 µM
same,GI50,UACC-257 melanoma,> 100 µM
same,TGI,UACC-257 melanoma,> 100 µM
same,GI50,OVCAR-4 ovarian,> 100 µM
same,TGI,OVCAR-4 ovarian,> 100 µM
same,GI50,MALME-3M melanoma,> 100 µM
same,TGI,MALME-3M melanoma,> 100 µM
same,GI50,HCT-15 colon,12.8 µM
same,TGI,HCT-15 colon,> 100 µM
same,GI50,T-47D breast,93.7 µM
same,TGI,T-47D breast,> 100 µM
same,GI50,BT-549 breast,25.9 µM
same,TGI,BT-549 breast,> 100 µM
same,GI50,RPMI-8226 leukemia,1.91 µM
same,TGI,RPMI-8226 leukemia,> 100 µM
same,GI50,786-0 renal,3.41 µM
same,TGI,786-0 renal,61.6 µM
same,GI50,SK-MEL-5 melanoma,> 100 µM
same,TGI,SK-MEL-5 melanoma,> 100 µM
same,GI50,PC-3 prostate,26.2 µM
same,TGI,PC-3 prostate,> 100 µM
same,GI50,HOP-92 NSCLC,36.5 µM
same,TGI,HOP-92 NSCLC,> 100 µM
same,GI50,HCT-116 colon,18.3 µM
same,TGI,HCT-116 colon,> 100 µM
same,GI50,DU-145 prostate,> 100 µM
same,TGI,DU-145 prostate,> 100 µM
same,GI50,NCI-H226 lung,> 100 µM
same,TGI,NCI-H226 lung,> 100 µM
same,GI50,UACC-62 melanoma,> 100 µM
same,TGI,UACC-62 melanoma,> 100 µM
same,GI50,SK-MEL-2 melanoma,> 100 µM
same,TGI,SK-MEL-2 melanoma,> 100 µM
same,GI50,HS 578T breast,4.17 µM
same,TGI,HS 578T breast,> 100 µM
same,GI50,A549 NSCLC,95.5 µM
same,TGI,A549 NSCLC,> 100 µM
same,GI50,COLO 205 colon,> 100 µM
same,TGI,COLO 205 colon,> 100 µM
same,GI50,EKVX NSCLC,> 100 µM
same,TGI,EKVX NSCLC,> 100 µM
same,GI50,OVCAR-8 ovarian,> 100 µM
same,TGI,OVCAR-8 ovarian,> 100 µM
same,GI50,IGROV1 ovarian,> 100 µM
same,TGI,IGROV1 ovarian,> 100 µM
same,GI50,NCI-H23 lung,> 100 µM
same,TGI,NCI-H23 lung,> 100 µM
same,GI50,U251 CNS,61 µM
same,TGI,U251 CNS,> 100 µM
same,GI50,KM12 colon,> 100 µM
same,TGI,KM12 colon,> 100 µM
same,GI50,OVCAR-3 ovarian,> 100 µM
same,TGI,OVCAR-3 ovarian,> 100 µM
same,GI50,RXF 393 renal,4.29 µM
same,TGI,RXF 393 renal,> 100 µM
same,GI50,HCC-2998 colon,> 100 µM
same,TGI,HCC-2998 colon,> 100 µM
same,GI50,A498 renal,> 100 µM
same,TGI,A498 renal,> 100 µM
same,GI50,SR leukemia,> 100 µM
same,TGI,SR leukemia,> 100 µM
same,GI50,CAKI-1 renal,60.9 µM
same,TGI,CAKI-1 renal,> 100 µM
same,GI50,SF-295 CNS,2.69 µM
same,TGI,SF-295 CNS,> 100 µM
same,GI50,LOX IMVI melanoma,> 100 µM
same,TGI,LOX IMVI melanoma,> 100 µM
same,GI50,NCI-H460 lung,> 100 µM
same,TGI,NCI-H460 lung,> 100 µM
same,GI50,SNB-75 CNS,6.29 µM
same,TGI,SNB-75 CNS,> 100 µM
same,GI50,SN12C renal,> 100 µM
same,TGI,SN12C renal,> 100 µM
same,GI50,MDA-MB-435,> 100 µM
same,TGI,MDA-MB-435,> 100 µM
same,GI50,UO-31 renal,28.9 µM
same,TGI,UO-31 renal,> 100 µM
same,GI50,SF-268 CNS,> 100 µM
same,TGI,SF-268 CNS,> 100 µM
same,GI50,MCF7 breast,46.8 µM
same,TGI,MCF7 breast,> 100 µM
same,GI50,CCRF-CEM leukemia,> 100 µM
same,TGI,CCRF-CEM leukemia,> 100 µM
same,GI50,MOLT-4 leukemia,45.2 µM
same,TGI,MOLT-4 leukemia,> 100 µM
same,GI50,HT29 colon,24.5 µM
same,TGI,HT29 colon,> 100 µM
same,GI50,K-562 leukemia,9.35 µM
same,TGI,K-562 leukemia,> 100 µM
same,GI50,ACHN renal,> 100 µM
same,TGI,ACHN renal,> 100 µM
same,GI50,NCI-H522 lung,> 100 µM
same,TGI,NCI-H522 lung,> 100 µM
same,GI50,NCI/ADR-RES ovarian,> 100 µM
same,TGI,NCI/ADR-RES ovarian,> 100 µM
same,GI50,SNB-19 CNS,> 100 µM
same,TGI,SNB-19 CNS,> 100 µM
same,GI50,SK-MEL-28 melanoma,> 100 µM
same,TGI,SK-MEL-28 melanoma,> 100 µM
same,GI50,HOP-62 NSCLC,> 100 µM
same,TGI,HOP-62 NSCLC,> 100 µM
same,GI50,SW-620 colon,> 100 µM
same,TGI,SW-620 colon,> 100 µM
same,GI50,M14 melanoma,30.6 µM
same,TGI,M14 melanoma,> 100 µM
same,GI50,HL-60(TB) leukemia,35.6 µM
same,TGI,HL-60(TB) leukemia,> 100 µM
same,GI50,TK-10 renal,> 100 µM
same,TGI,TK-10 renal,> 100 µM
same,GI50,SK-OV-3 ovarian,> 100 µM
same,TGI,SK-OV-3 ovarian,> 100 µM
same,GI50,MDA-MB-231 breast,> 100 µM
same,TGI,MDA-MB-231 breast,> 100 µM
same,GI50,OVCAR-5 ovarian,> 100 µM
same,TGI,OVCAR-5 ovarian,> 100 µM

# — PubChem BioAssay (NCI)
